Results reported in patent publication US20130131043A1, “PYRAZOLE COMPOUNDS AS JAK INHIBITORS” (priority 2010, published 2013).

Columns and labels:
JAK3 = target: T1, JAK3 (Homo sapiens, UniProt P52333); test: Kinobeads assay, JAK3 (competition binding in cell lysate, dot blot detection); settings: mixed Molt4/Ramos lysate
T1 construct: endogenous in cells; host or cells: Molt4 (ATCC CRL-1582) and Ramos (ATCC CRL-1596) cell lysate; mixed Molt4/Ramos lysate 1:2
T1 sequence (P52333 1-1124): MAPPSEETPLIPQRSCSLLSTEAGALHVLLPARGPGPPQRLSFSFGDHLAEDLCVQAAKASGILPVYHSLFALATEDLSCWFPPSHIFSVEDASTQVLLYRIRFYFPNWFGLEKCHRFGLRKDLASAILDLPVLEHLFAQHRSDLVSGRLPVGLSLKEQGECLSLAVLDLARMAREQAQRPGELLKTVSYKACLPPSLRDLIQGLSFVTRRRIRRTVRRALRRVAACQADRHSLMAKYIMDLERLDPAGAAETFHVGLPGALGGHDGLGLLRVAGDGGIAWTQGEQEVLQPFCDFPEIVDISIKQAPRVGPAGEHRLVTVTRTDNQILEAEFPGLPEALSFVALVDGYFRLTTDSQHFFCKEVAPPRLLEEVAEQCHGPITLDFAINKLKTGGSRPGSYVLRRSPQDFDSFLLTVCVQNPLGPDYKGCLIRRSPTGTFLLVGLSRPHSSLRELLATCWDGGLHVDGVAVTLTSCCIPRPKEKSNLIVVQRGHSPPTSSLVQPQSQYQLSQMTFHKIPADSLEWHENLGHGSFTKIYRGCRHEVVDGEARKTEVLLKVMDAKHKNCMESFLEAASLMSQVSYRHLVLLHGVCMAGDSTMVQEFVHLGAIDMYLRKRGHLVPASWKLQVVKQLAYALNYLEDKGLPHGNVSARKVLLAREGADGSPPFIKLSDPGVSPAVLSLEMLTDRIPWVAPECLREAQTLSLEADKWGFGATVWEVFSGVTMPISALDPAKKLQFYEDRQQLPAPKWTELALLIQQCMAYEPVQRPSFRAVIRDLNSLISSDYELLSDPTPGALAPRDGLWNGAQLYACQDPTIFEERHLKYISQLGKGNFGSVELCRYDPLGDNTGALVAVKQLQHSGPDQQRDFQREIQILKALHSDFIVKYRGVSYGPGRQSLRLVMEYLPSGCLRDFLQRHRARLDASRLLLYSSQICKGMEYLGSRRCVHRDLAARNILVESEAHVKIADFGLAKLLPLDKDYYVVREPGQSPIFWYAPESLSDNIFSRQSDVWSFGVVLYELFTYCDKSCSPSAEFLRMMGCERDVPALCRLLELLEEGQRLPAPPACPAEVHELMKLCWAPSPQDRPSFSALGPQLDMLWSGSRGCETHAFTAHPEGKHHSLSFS
Method: (§1) The compounds of the present invention as described in the previous examples were tested in a Kinobeads™ assay as described for ZAP-70 (WO-A 2007/137867). Briefly, test compounds (at various concentrations) and the affinity matrix with the immobilized aminopyrido-pyrimidine ligand 24 were added to cell lysate aliquots and allowed to bind to the proteins in the lysate sample. After the incubation time the beads with captured proteins were separated from the lysate. Bound proteins were then eluted and the presence of JAK2 and JAK3 was detected and quantified using specific antibodies in a dot blot procedure and the Odyssey infrared detection system. Dose response curves for individual kinases were generated and IC50 values calculated. Kinobeads™ assays for ZAP-70 (WO-A 2007/137867) and for kinase selectivity profiling (WO-A 2006/134056) have been previously described.
(§2) 5×DP buffer: 250 mM Tris-HCl pH 7.4, 25% Glycerol, 7.5 mM MgCl2, 750 mM NaCl, 5 mM Na3VO4; filter the 5×DP buffer through a 0.22 μm filter and store in aliquots at −80° C. The 5×DP buffer is diluted with H2O to 1×DP buffer containing 1 mM DTT and 25 mM NaF.
(§3) Stock solutions of test compounds were prepared in DMSO. In a 96 well plate 30 μL solution of diluted test compounds at 5 mM in DMSO were prepared. Starting with this solution a 1:3 dilution series (9 steps) was prepared. For control experiments (no test compound) a buffer containing 2% DMSO was used.
(§4) Molt4 cells (ATCC catalogue number CRL-1582) and Ramos cells (ATCC catalogue number CRL-1596) were grown in 1 L Spinner flasks (Integra Biosciences, #182101) in suspension in RPMI 1640 medium (Invitrogen, #21875-034) supplemented with 10% Fetal Bovine Serum (Invitrogen) at a density between 0.15×10^6 and 1.2×10^6 cells/mL. Cells were harvested by centrifugation, washed once with 1×PBS buffer (Invitrogen, #14190-094) and cell pellets were frozen in liquid nitrogen and subsequently stored at −80° C. Cells were homogenized in a Potter S homogenizer in lysis buffer: 50 mM Tris-HCl, 0.8% NP40, 5% glycerol, 150 mM NaCl, 1.5 mM MgCl2, 25 mM NaF, 1 mM sodium vanadate, 1 mM DTT, pH 7.5. One complete EDTA-free tablet (protease inhibitor cocktail, Roche Diagnostics, 1873580) per 25 mL buffer was added. The material was dounced 10 times using a mechanized POTTER S, transferred to 50 mL falcon tubes, incubated for 30 minutes on ice and spun down for 10 minutes at 20,000 g at 4° C. (10,000 rpm in Sorvall SLA600, precooled). The supernatant was transferred to an ultracentrifuge (UZ)-polycarbonate tube (Beckmann, 355654) and spun for 1 hour at 100.000 g at 4° C. (33.500 rpm in Ti50.2, precooled). The supernatant was transferred again to a fresh 50 mL falcon tube, the protein concentration was determined by a Bradford assay (BioRad) and samples containing 50 mg of protein per aliquot were prepared. The samples were immediately used for experiments or frozen in liquid nitrogen and stored frozen at −80° C.
(§5) Cell lysate (approximately 50 mg protein per plate) was thawed in a water bath at room temperature and then stored on ice. To the thawed cell lysate 1×DP 0.8% NP40 buffer containing protease inhibitors (1 tablet for 25 mL buffer; EDTA-free protease inhibitor cocktail; Roche Diagnostics 1873580) was added in order to reach a final protein concentration of 10 mg/mL total protein. The diluted cell lysate was stored on ice. Mixed Molt4/Ramos lysate was prepared by combining one volume of Molt4 lysate and two volumes of Ramos lysate (ratio 1:2).
(§6) Plates were sealed and incubated for 3 hours in a cold room on a plate shaker (Heidolph tiramax 1000) at 750 rpm. Afterwards the plate was washed 3 times with 230 μL washing buffer (1×DP 0.4% NP40). The filter plate was placed on top of a collection plate (Greiner bio-one, PP-microplate 96 well V-shape, 65120) and the beads were then eluted with 20 μL of sample buffer (100 mM Tris, pH 7.4, 4% SDS, 0.00025% bromophenol blue, 20% glycerol, 50 mM DTT). […]

JAK2 = target: T2, JAK2 (Homo sapiens, UniProt O60674); test: Kinobeads assay, JAK2 (competition binding in cell lysate, dot blot detection); settings: mixed Molt4/Ramos lysate
T2 construct: endogenous in cells; host or cells: Molt4 (ATCC CRL-1582) and Ramos (ATCC CRL-1596) cell lysate; mixed Molt4/Ramos lysate 1:2
Method: as §1, §2, §3, §4, §5, §6

T2 sequence (O60674 whole entry): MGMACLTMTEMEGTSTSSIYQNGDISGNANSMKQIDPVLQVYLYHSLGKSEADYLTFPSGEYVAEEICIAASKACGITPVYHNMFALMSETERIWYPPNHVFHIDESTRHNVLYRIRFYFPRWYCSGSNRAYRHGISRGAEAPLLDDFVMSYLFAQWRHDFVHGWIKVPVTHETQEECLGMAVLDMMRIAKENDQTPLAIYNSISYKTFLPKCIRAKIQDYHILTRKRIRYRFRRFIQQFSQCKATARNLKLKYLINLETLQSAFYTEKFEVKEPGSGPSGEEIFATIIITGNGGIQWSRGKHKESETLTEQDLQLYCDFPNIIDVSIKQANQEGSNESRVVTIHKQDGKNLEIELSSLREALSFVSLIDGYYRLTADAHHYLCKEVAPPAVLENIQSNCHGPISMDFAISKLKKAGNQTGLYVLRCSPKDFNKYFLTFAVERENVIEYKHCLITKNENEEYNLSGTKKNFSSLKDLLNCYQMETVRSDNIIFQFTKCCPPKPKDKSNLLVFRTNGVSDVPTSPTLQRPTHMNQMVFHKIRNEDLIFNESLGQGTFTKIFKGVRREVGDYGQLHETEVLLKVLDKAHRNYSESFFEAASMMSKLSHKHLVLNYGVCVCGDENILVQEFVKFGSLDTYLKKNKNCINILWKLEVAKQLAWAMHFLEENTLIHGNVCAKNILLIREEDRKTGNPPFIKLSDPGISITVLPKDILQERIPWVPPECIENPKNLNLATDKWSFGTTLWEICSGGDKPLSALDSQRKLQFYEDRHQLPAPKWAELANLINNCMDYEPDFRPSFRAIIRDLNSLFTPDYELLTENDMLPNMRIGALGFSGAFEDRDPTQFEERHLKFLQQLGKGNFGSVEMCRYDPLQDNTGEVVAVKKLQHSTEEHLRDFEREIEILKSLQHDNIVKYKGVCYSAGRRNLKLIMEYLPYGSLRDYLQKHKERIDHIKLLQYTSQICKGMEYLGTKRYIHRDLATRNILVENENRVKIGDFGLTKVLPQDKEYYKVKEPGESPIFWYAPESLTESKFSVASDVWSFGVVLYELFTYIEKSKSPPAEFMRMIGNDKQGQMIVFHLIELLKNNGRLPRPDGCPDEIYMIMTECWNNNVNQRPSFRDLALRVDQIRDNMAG

| SMILES | IC50 (JAK3) | IC50 (JAK2) |
| --- | --- | --- |
| CS(=O)(=O)N1CCCC(Cn2ncc3cnc(Nc4cnn(CCO)c4)nc32)C1 (stereo not drawn) [Example 39, 2-(4-((1-((1-(methylsulfonyl)piperidin-3-yl)methyl)-1H-pyrazolo[3,4-d]pyrimidin-6-yl)amino)-1H-pyrazol-1-yl)ethanol] | < 0.1 µM | 1 to 10 µM |
| Cn1cc(Nc2ncc3cnn(CC4CCNC4)c3n2)cn1 (stereo not drawn) [Example 40, N-(1-methyl-1H-pyrazol-4-yl)-1-(pyrrolidin-3-ylmethyl)-1H-pyrazolo[3,4-d]pyrimidin-6-amine] | 0.1 to 1 µM | 1 to 10 µM |
| Cn1cc(Nc2ncc3cnn(CC4CCCN(CCC#N)C4)c3n2)cn1 (stereo not drawn) [Example 41, 3-(3-((6-((1-methyl-1H-pyrazol-4-yl)amino)-1H-pyrazolo[3,4-d]pyrimidin-1-yl)methyl)piperidin-1-yl)propanenitrile] | < 0.1 µM | 1 to 10 µM |
| CCS(=O)(=O)N1CCC(Cn2ncc3cnc(Nc4cnn(C)c4)nc32)C1 (stereo not drawn) [Example 42, 1-((1-(ethylsulfonyl)pyrrolidin-3-yl)methyl)-N-(1-methyl-1H-pyrazol-4-yl)-1H-pyrazolo[3,4-d]pyrimidin-6-amine] | 0.1 to 1 µM | > 10 µM |
| Cn1cc(Nc2ncc3cnn(CC4CCN(S(=O)(=O)C5CC5)C4)c3n2)cn1 (stereo not drawn) [Example 43, 1-((1-(cyclopropylsulfonyl)pyrrolidin-3-yl)methyl)-N-(1-methyl-1H-pyrazol-4-yl)-1H-pyrazolo[3,4-d]pyrimidin-6-amine] | 0.1 to 1 µM | > 10 µM |
| Cn1cc(Nc2ncc3cnn(CC4CCCN(CCS(C)(=O)=O)C4)c3n2)cn1 (stereo not drawn) [Example 46, N-(1-methyl-1H-pyrazol-4-yl)-1-((1-(2-(methylsulfonyl)ethyl)piperidin-3-yl)methyl)-1H-pyrazolo[3,4-d]pyrimidin-6-amine] | < 0.1 µM | 1 to 10 µM |
| Cn1cc(Nc2ncc3cnn(CC4CCN(S(C)(=O)=O)C4)c3n2)cn1 (stereo not drawn) [Example 48, N-(1-methyl-1H-pyrazol-4-yl)-1-((1-(methylsulfonyl)pyrrolidin-3-yl)methyl)-1H-pyrazolo[3,4-d]pyrimidin-6-amine] | 0.1 to 1 µM | > 10 µM |
| Cn1cc(Nc2ncc3cnn(CC4CN(CCC#N)C4)c3n2)cn1 [Example 49, 3-(3-((6-((1-methyl-1H-pyrazol-4-yl)amino)-1H-pyrazolo[3,4-d]pyrimidin-1-yl)methyl)azetidin-1-yl)propanenitrile] | 0.1 to 1 µM | > 10 µM |
| Cn1cc(Nc2ncc3cnn(CC4CCN(CCC#N)C4)c3n2)cn1 (stereo not drawn) [Example 53, 3-(3-((6-((1-methyl-1H-pyrazol-4-yl)amino)-1H-pyrazolo[3,4-d]pyrimidin-1-yl)methyl)pyrrolidin-1-yl)propanenitrile] | < 0.1 µM | 1 to 10 µM |
| CSCCC(=O)N1CCCC(Cn2ncc3cnc(Nc4cnn(CC(F)F)c4)nc32)C1 (stereo not drawn) [Example 56, 1-(3-((6-((1-(2,2-difluoroethyl)-1H-pyrazol-4-yl)amino)-1H-pyrazolo[3,4-d]pyrimidin-1-yl)methyl)piperidin-1-yl)-3-(methylthio)propan-1-one] | 0.1 to 1 µM | > 10 µM |
| N#CCCN1CCCC(Cn2ncc3cnc(Nc4cnn(CC(F)F)c4)nc32)C1 (stereo not drawn) [Example 57, 3-(3-((6-((1-(2,2-difluoroethyl)-1H-pyrazol-4-yl)amino)-1H-pyrazolo[3,4-d]pyrimidin-1-yl)methyl)piperidin-1-yl)propanenitrile] | < 0.1 µM | > 10 µM |

The remaining lines, values ahead:

| IC50 (JAK3) | IC50 (JAK2) | SMILES |
| --- | --- | --- |
| 0.1 to 1 µM | > 10 µM | Cn1cc(Nc2ncc3cnn(CC4CCCN(C(=O)OCCF)C4)c3n2)cn1 (stereo not drawn) [Example 44, 2-fluoroethyl 3-((6-((1-methyl-1H-pyrazol-4-yl)amino)-1H-pyrazolo[3,4-d]pyrimidin-1-yl)methyl)piperidine-1-carboxylate] |
| 0.1 to 1 µM | > 10 µM | COCCOC(=O)N1CCCC(Cn2ncc3cnc(Nc4cnn(C)c4)nc32)C1 (stereo not drawn) [Example 45, 2-methoxyethyl 3-((6-((1-methyl-1H-pyrazol-4-yl)amino)-1H-pyrazolo[3,4-d]pyrimidin-1-yl)methyl)piperidine-1-carboxylate] |
| 0.1 to 1 µM | 1 to 10 µM | Cn1cc(Nc2ncc3cnn(CC4CCCN(C(=O)C(F)(F)F)C4)c3n2)cn1 (stereo not drawn) [Example 47, 2,2,2-trifluoro-1-(3-((6-((1-methyl-1H-pyrazol-4-yl)amino)-1H-pyrazolo[3,4-d]pyrimidin-1-yl)methyl)piperidin-1-yl)ethanone] |
| < 0.1 µM | 1 to 10 µM | CCNC(=O)N1CCCC(Cn2ncc3cnc(Nc4cnn(C)c4)nc32)C1 (stereo not drawn) [Example 51, N-ethyl-3-((6-((1-methyl-1H-pyrazol-4-yl)amino)-1H-pyrazolo[3,4-d]pyrimidin-1-yl)methyl)piperidine-1-carboxamide] |
| < 0.1 µM | 1 to 10 µM | Cn1cc(Nc2ncc3cnn(CC4CCCN(C(=O)NC5CC5)C4)c3n2)cn1 (stereo not drawn) [Example 52, N-cyclopropyl-3-((6-((1-methyl-1H-pyrazol-4-yl)amino)-1H-pyrazolo[3,4-d]pyrimidin-1-yl)methyl)piperidine-1-carboxamide] |
| < 0.1 µM | 1 to 10 µM | Cn1cc(Nc2ncc3cnn(CC4CCCN(CC#N)C4)c3n2)cn1 (stereo not drawn) [Example 54, 2-(3-((6-((1-methyl-1H-pyrazol-4-yl)amino)-1H-pyrazolo[3,4-d]pyrimidin-1-yl)methyl)piperidin-1-yl)acetonitrile] |
| < 0.1 µM | 1 to 10 µM | CCN1CCCC(Cn2ncc3cnc(Nc4cnn(C)c4)nc32)C1 (stereo not drawn) [Example 55, 1-((1-ethylpiperidin-3-yl)methyl)-N-(1-methyl-1H-pyrazol-4-yl)-1H-pyrazolo[3,4-d]pyrimidin-6-amine] |
